Laboratory results taken from US20110082166A1, “NOVEL 4-BENZHYDRYL-TETRAHYDRO-PYRIDINE DERIVATIVES AND THEIR USE AS MONOAMINE NEUROTRANSMITTER RE-UPTAKE INHIBITORS” (NEUROSEARCH A/S, priority 2008, published 2011).
Counter-ions that a name gives are not always drawn. Like-named read-outs stand apart in the source and are kept apart here.

Legend:
[1] = target: T1, reuptake of dopamine (DA) in synaptosomes (Rattus norvegicus, UniProt P23977); assay: In vitro inhibition of DA reuptake in synaptosomes; type: biochemical
T1 construct: in synaptosomes as described in WO 97/16451 (NeuroSearch A/S); from tissue

[2] = target: T2, reuptake of serotonine (5-HT) in synaptosomes (Rattus norvegicus, UniProt P31652); assay: In vitro inhibition of 5-HT reuptake in synaptosomes; type: biochemical
T2 construct: in synaptosomes as described in WO 97/16451 (NeuroSearch A/S); from tissue
Method: Compounds were tested for their ability to inhibit the reuptake of the monoamine neurotransmitters dopamine (DA) noradrenaline (NA) and serotonine (5-HT) in synaptosomes as described in WO 97/16451 (NeuroSearch A/S).
The test values are given as IC50 (the concentration (μM) of the test substance which inhibits the specific binding of ^3H-DA, ^3H-NA, or ^3H-5-HT by 50%).

[3] = target: T3, reuptake of noradrenaline (NA) in synaptosomes (Rattus norvegicus, UniProt Q63380); assay: In vitro inhibition of NA reuptake in synaptosomes; type: biochemical
T3 construct: in synaptosomes as described in WO 97/16451 (NeuroSearch A/S); from tissue
T3 sequence (Q63380 1-617): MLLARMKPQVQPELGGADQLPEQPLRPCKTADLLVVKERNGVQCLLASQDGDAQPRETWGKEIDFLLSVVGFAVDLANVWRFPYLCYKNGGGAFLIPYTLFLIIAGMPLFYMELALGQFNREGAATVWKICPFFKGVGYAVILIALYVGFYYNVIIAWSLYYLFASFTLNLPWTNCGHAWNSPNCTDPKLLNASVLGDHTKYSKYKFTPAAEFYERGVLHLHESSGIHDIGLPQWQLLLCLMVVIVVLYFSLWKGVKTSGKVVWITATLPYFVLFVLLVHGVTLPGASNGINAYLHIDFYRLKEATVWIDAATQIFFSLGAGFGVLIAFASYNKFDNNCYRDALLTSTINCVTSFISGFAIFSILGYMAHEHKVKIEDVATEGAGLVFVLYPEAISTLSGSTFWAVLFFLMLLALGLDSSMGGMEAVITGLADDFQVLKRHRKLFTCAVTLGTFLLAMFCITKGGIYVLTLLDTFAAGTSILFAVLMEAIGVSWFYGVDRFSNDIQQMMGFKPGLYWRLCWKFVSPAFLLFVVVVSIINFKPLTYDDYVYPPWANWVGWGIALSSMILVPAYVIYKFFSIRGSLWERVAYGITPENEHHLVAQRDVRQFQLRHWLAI

T2 sequence (P31652 whole entry): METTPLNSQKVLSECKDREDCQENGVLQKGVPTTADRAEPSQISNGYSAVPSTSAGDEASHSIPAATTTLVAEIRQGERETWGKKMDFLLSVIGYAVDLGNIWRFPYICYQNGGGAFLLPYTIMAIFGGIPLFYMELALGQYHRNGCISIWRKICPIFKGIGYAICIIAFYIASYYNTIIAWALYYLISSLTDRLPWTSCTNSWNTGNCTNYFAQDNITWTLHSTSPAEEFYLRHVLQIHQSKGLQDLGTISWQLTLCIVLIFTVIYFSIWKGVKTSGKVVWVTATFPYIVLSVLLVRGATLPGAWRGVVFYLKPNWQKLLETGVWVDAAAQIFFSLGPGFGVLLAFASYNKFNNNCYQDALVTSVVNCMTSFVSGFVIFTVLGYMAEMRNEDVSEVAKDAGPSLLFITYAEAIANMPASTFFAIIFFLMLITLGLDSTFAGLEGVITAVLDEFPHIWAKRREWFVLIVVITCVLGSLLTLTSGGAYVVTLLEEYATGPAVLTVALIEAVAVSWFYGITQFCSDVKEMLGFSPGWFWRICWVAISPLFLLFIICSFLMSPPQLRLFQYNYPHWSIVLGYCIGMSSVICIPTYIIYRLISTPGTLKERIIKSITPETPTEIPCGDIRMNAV
T1 sequence (P23977 whole entry): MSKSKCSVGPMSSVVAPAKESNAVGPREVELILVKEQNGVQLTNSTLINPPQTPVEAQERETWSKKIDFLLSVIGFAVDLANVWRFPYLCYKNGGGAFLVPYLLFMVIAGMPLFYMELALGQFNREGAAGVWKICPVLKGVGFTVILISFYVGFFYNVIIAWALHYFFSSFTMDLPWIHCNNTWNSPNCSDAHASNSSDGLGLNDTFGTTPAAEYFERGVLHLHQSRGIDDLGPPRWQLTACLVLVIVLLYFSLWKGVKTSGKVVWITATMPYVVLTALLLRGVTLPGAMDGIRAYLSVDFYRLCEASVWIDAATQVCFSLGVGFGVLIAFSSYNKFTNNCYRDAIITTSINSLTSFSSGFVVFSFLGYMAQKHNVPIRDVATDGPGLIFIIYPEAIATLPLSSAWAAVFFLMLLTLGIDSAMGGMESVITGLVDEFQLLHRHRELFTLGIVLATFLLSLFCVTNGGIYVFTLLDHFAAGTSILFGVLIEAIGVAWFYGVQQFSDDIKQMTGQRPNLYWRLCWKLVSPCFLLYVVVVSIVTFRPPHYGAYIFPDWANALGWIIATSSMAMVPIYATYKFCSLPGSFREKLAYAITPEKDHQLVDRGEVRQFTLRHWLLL

C1=C(C(c2ccccc2)c2ccccc2)CCNC1 [4-Benzhydryl-1,2,3,6-tetrahydro-pyridine]
IC50 [1]: 0.063 µM
IC50 [2]: 0.0035 µM
IC50 [3]: 0.045 µM

CN1CC=C(C(c2ccccc2)c2ccccc2)CC1 [4-Benzhydryl-1-methyl-1,2,3,6-tetrahydro-pyridine]
IC50 ([1]; synaptosomes, 3H-DA, read-out: DA-uptake IC50): 0.58 µM
IC50 ([2]; synaptosomes, 3H-5-HT, read-out: 5-HT-uptake IC50): > 1 µM
IC50 ([3]; synaptosomes, 3H-NA, read-out: NA-uptake IC50): 0.6 µM

CN1CC=C(C(c2ccccc2)c2ccccc2)CC1 (as salt: fumaric acid salt) [4-Benzhydryl-1-methyl-1,2,3,6-tetrahydro-pyridine]
melting point: 177.6 to 179.2 °C
